Assay results taken from US20130177921A1, “Detection of Damage to DNA” (priority 2010, published 2013).

Key:
[1] = system: MCF7 human breast cancer cells; experiment: Dox-induced DNA damage (AP sites) in MCF7 cells used as surrogate CTCs, extended DNA fibers; format: cell-based
Excerpt: MCF7 cells were exposed to Doxorubicin (Dox) in culture (1) or exposed to Dox in culture and then processed using the Mag Sweeper Oft MCF7 cells processed identically but not treated with Dox served as controls in each case. Cells were next were recovered, put onto slides and lysed and DNA extended
MCF7 cells were exposed to Doxorubicin (Dox) alone (first three bars) or exposed to Dox first then isolated using Mag Sweeper (fourth, filth, sixth bars). Thereafter. DNA was extended on slides following cell lysis and DNA and sites of DNA damage were stained with fluorescent probes Images of extended fluorescently-labeled DNA fibers were obtained and DNA content and DNA damage site number were determined by computer analysis of the images. Results of the analysis of DNA damage in the bars is reported with the ordinate of the graph scaled as the number of DNA damage sites, in this case AP sites, per 10^6 nucleotides in length
In an initial study, MCF7 human breast cancer cells, a line of human breast adenocarcinoma, were used to simulated CTCs. The “simulated CTCs” were exposed to 0, 0.33, and 0.66 μM doxorubicin (Dox). Doxorubicin is a principal chemotherapeutic agent for breast cancer and the doses of the drug were chosen to approximate dose levels achieved in patients. In one experiment, untreated cells and cells treated with Dox were harvested 16 hours after starting sham or drug treatment and slides of extended DNA were prepared from the untreated and treated cells. The amount of DNA damage for each treatment condition was then determined. This experiment was designed to test whether drug exposure of the cells alone increased DNA damage in the form of abasic (AP) sites (FIG. 13, upper path). Next, untreated cells and cells treated with Dox were collected 16 hours after starting sham or drug treatment. The cells were subjected to a CTC isolation technique referred to as the ‘Mag Sweeper’ process (15) and the recovered cells' DNA harvested and placed on slides to extend the DNA and then the DNA analyzed for damage as described herein ([…], lower path).

DT40 cells [2] = conditions: H2O2-treated versus untreated cells
Description: (§1) Avian DT40 cells (38, 39) were grown at 39.5° C., the normal Avian body temperature, in a humidified atmosphere supplemented with 5% CO2 as a suspension in RPMI-1640 (Invitrogen) supplemented with 10% fetal bovine serum (Sigma), 1% chicken serum (Sigma and Invitrogen), and containing 100 μg/ml penicillin and 100 μg/ml streptomycin (Invitrogen).

DT40 cells [3] = conditions: cells exposed to 20 μM H2O2
Description: as §1
DNA was isolated from DT40 cells in normal culture conditions or DT40 cells experiencing oxidative stress and processed for slot-blot analysis as described previously (2).

DT40 cells [4] = system: DT40 cells
Description: Briefly, cells growing in culture were first labeled for 10 min in medium with 100 μM iododeoxyurine (IdU), and then centrifuged to remove the medium containing IdU. […] After exposure to the second halogenated nucleotide, the cells were harvested by centrifugation and resuspended in ice cold PBS at about 200 cells/μl.
For the detection of IdU and CIdU within the DNA fiber spreads, the slides were treated with 2.5 M HCl for 30 min, washed several times in PBS, and blocked in 3% bovine serum albumin in PBS for 60 min. […]
To determine the number of nt that had been replicated (i.e., incorporated IdU or CIdU) in normal culture conditions, the total amount of fluorescence from both IdU and CIdU was measured. The number of AP sites co-localized in areas where DNA had replicated was assessed using the co-localization function provided by Image J. In this series of experiments, AP sites were marked by blue signal and those that co-localized with areas undergoing replication were counted using the particle counter function of Image J. To determine the amount of replicating DNA expressed in nt, the total amount of red and green fluorescence (IdU and CIdU, respectively) was determined and then divided by fluorescence intensity per nt, as described above.
To determine the number of AP sites per unit length of DNA in areas undergoing replication, cells were first pulsed with IdU (a nucleotide precursor), and then pulsed with CIdU (a different precursor). […] Fluorescently labeled AP sites were readily detected and could be quantified with respect to the fluorescent tracks of IdU and CIdU labeled DNA (see Materials and Methods).

Row | Compound | DNA damage (AP sites) after Mag Sweeper isolation ([1]; 0.33 and 0.66 μM Dox, 16 hours, then cells processed with Mag Sweeper, versus untreated cells) | DNA damage (level of AP sites) ([1]; 0.33 and 0.66 μM Dox, harvested 16 hours after start, Dox alone, versus untreated cells) | dose dependence of DNA damage ([1]; 0.66 versus 0.33 μM Dox, with and without Mag Sweeper) | clustering of AP sites (DT40 cells [2]) | number of AP sites per 10^6 nt, slot blot analysis (DT40 cells [3]) | number of AP sites per 10^6 nt in CIdU tracks (DT40 cells [4]; replicating DNA labeled after H2O2 exposure (20 μM, FIG. 3)) | number of AP sites per 10^6 nt in IdU tracks (DT40 cells [4]; replicating DNA labeled before H2O2 exposure (20 μM, FIG. 3)) | increase of AP sites per 10^6 nt in replicating regions exposed to H2O2 (DT40 cells [4]; replicating regions versus global DNA, H2O2-exposed cells)
1 | COc1cccc2c1C(=O)c1c(O)c3c(c(O)c1C2=O)C[C@@](O)(C(=O)CO)C[C@@H]3O[C@H]1C[C@H](N)[C@H](O)[C@H](C)O1 [Dox, Doxorubicin] | AP sites increased after Dox treatment | notably increased DNA damage | more damage detected with the higher dose | – | – | – | – | –
2 | OO [H2O2, hydrogen peroxide] | – | – | – | more common | 7.7 AP sites per 10^6 nt | 20.8 per 10^6 nt | 12.9 per 10^6 nt | 50 to 150%
